Data: the supplement of paper PMC10307832

Columns and labels:
Experiment in all cases: relative viability (nuclei count vs DMSO), 5 days (fraction); higher = more cells survive
Bosutinib + Tozasertib = compound: COc1cc(Nc2c(C#N)cnc3cc(OCCCN4CCN(C)CC4)c(OC)cc23)c(Cl)cc1Cl [Bosutinib] + Cc1cc(Nc2cc(N3CCN(C)CC3)nc(Sc3ccc(NC(=O)C4CC4)cc3)n2)n[nH]1 [Tozasertib] (partner 0.1 µM)
How it was run: (§1)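 Lung cancer cell lines were pin-tool dosed in 1536-well plates on the day after seeding, with either a lone drug or a fixed anchor-drug dose plus five library-drug doses (not always all listed) in √10 steps. Nuclei were counted on 4× images after 5 days. Relative viability is the ratio of treated-well to vehicle-well nuclei counts, with each value a median of duplicate plates.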

Bosutinib + Dasatinib = compound: COc1cc(Nc2c(C#N)cnc3cc(OCCCN4CCN(C)CC4)c(OC)cc23)c(Cl)cc1Cl [Bosutinib] + Cc1nc(Nc2ncc(C(=O)Nc3c(C)cccc3Cl)s2)cc(N2CCN(CCO)CC2)n1 [Dasatinib] (partner 0.075 µM)
How it was run: as §1

Bosutinib + Foretinib = compound: COc1cc(Nc2c(C#N)cnc3cc(OCCCN4CCN(C)CC4)c(OC)cc23)c(Cl)cc1Cl [Bosutinib] + COc1cc2c(Oc3ccc(NC(=O)C4(C(=O)Nc5ccc(F)cc5)CC4)cc3F)ccnc2cc1OCCCN1CCOCC1 [Foretinib] (partner 0.25 µM)
How it was run: as §1

Bosutinib + Decitabine = compound: COc1cc(Nc2c(C#N)cnc3cc(OCCCN4CCN(C)CC4)c(OC)cc23)c(Cl)cc1Cl [Bosutinib] + Nc1ncn([C@H]2C[C@H](O)[C@@H](CO)O2)c(=O)n1 [Decitabine] (partner 2 µM)
How it was run: as §1

Bosutinib + Navitoclax = compound: COc1cc(Nc2c(C#N)cnc3cc(OCCCN4CCN(C)CC4)c(OC)cc23)c(Cl)cc1Cl [Bosutinib] + CC1(C)CCC(c2ccc(Cl)cc2)=C(CN2CCN(c3ccc(C(=O)NS(=O)(=O)c4ccc(N[C@H](CCN5CCOCC5)CSc5ccccc5)c(S(=O)(=O)C(F)(F)F)c4)cc3)CC2)C1 [Navitoclax] (partner 0.5 µM)
How it was run: as §1

Cell Line | relative viability (Bosutinib + Tozasertib; first compound 0.01 µM) | relative viability (Bosutinib + Tozasertib; first compound 0.03162 µM) | relative viability (Bosutinib + Tozasertib; first compound 0.1 µM) | relative viability (Bosutinib + Tozasertib; first compound 1 µM) | relative viability (Bosutinib + Dasatinib; first compound 0.01 µM) | relative viability (Bosutinib + Dasatinib; first compound 0.03162 µM) | relative viability (Bosutinib + Dasatinib; first compound 0.1 µM) | relative viability (Bosutinib + Dasatinib; first compound 1 µM) | relative viability (Bosutinib + Foretinib; first compound 0.01 µM) | relative viability (Bosutinib + Foretinib; first compound 0.03162 µM) | relative viability (Bosutinib + Foretinib; first compound 0.1 µM) | relative viability (Bosutinib + Foretinib; first compound 1 µM) | relative viability (Bosutinib + Decitabine; first compound 0.01 µM) | relative viability (Bosutinib + Decitabine; first compound 0.03162 µM) | relative viability (Bosutinib + Decitabine; first compound 0.1 µM) | relative viability (Bosutinib + Decitabine; first compound 1 µM) | relative viability (Bosutinib + Navitoclax; first compound 0.01 µM) | relative viability (Bosutinib + Navitoclax; first compound 0.03162 µM) | relative viability (Bosutinib + Navitoclax; first compound 0.1 µM) | relative viability (Bosutinib + Navitoclax; first compound 1 µM)
NCI-H596 | 1.06 | 0.828 | 0.893 | 0.788 | 0.595 | 0.721 | 0.704 | 0.637 | 0.745 | 0.857 | 0.721 | 0.855 | 1.03 | 1.07 | 1.05 | 0.876 | 1.06 | 0.86 | 1.18 | 0.785
NCI-H647 | 0.38 | 0.203 | 0.389 | 0.201 | 0.22 | 0.219 | 0.222 | 0.174 | 1.28 | 1.17 | 1.31 | 0.778 | 0.442 | 0.36 | 0.302 | 0.386 | 1.25 | 1.23 | 1.09 | 0.82
NCI-H727 | 0.577 | 0.598 | 0.549 | 0.441 | 0.374 | 0.321 | 0.32 | 0.31 | 0.91 | 0.859 | 0.639 | 0.568 | 0.848 | 1.03 | 0.909 | 0.764 | 0.429 | 0.519 | 0.437 | 0.291
NCI-H838 | 0.306 | 0.294 | 0.263 | 0.215 | 0.325 | 0.302 | 0.334 | 0.332 | 1.08 | 1.02 | 0.989 | 0.598 | 0.467 | 0.507 | 0.422 | 0.411 | 1.14 | 1.14 | 1.07 | 0.637
